Patent US20250243488A1, “METHODS OF MODULATING PROGRANULIN EXPRESSION USING ANTISENSE OLIGONUCLEOTIDES TARGETING REGULATORY RNAS” (Camp4 Therapeutics Corporation, priority 2022, published 2025)
Oligonucleotides are written 5' to 3', each unit as a sugar letter and its base; * is a phosphorothioate linkage, no mark a phosphodiester; rarer units and linkages stand in square brackets, end groups in braces. Plain capitals give the bases only. e = 2'-O-(2-methoxyethyl) (MOE); l = locked nucleic acid (LNA); [5mC] = 5-methylcytosine

Test system: mGrn mRNA
Test: mGrn mRNA qPCR in Neuro2a cells transfected with ASOs
Format: cell-based, mouse
Conditions: for 40 nM FC (mGrn mRNA) / 80 nM FC (mGrn mRNA) / 160 nM FC (mGrn mRNA): transfection; for mGRN mRNA FC: Table 14, 100 nM, 48 hours, normalized to sNTC3
Procedure: 57 ASOs targeting the Grn promoter (− strand) were screened in Neuro2a cells. Neuro2a cells were transfected with 100 nM of each of the ASOs listed in Table 14 and cells were harvested 48 hours later for Grn mRNA quantification using qPCR. Housekeeping genes for normalization were Gapdh and Ppia. Relative Grn mRNA levels were normalized to mRNA extracted from cells treated with sNTC3 (steric nontargeting control).
Next, 26 ASOs based on parent ASOs CO-3544 and CO-3595 were designed with different modifications and base walking. Neuro2a cells were transfected with either […] or 160 nM of each of the ASOs listed in Table 15, and cells were harvested 48 hours later for mGrn mRNA quantification using qPCR. As controls, cells were treated with sNTC3 or no ASO. Housekeeping genes for normalization were Gapdh and Ppia. Relative Grn mRNA levels were normalized to mRNA extracted from cells treated with sNTC3.
CO-3544 was modified to include PO/PS bonds and the efficacy in upregulating mGrn mRNA was determined.
Similarly, CO-3595 was modified to include varying PO/PS internucleotide bonds and the efficacy of these ASOs in upregulating mGrn mRNA was determined in Neuro2A cells.

## CO-5315: CO-3595 modified to include varying PO/PS internucleotide bonds (antisense l[5mC]*l[5mC]*eT*lG*eA*lA*e[5mC]*lT*eG*lT*eA*lT*eG*lG*e[5mC]*lT*lG*eA*l[5mC]*l[5mC])
Table 16, Neuro2A
  40 nM FC (mGrn mRNA): 1.3 FC
  80 nM FC (mGrn mRNA): 1.4 FC
  160 nM FC (mGrn mRNA): 1.6 FC

## CO-3560: ASO targeting the Grn promoter (− strand) (antisense eT*eG*eA*eT*eG*e[5mC]*eA*e[5mC]*eT*eA*eA*e[5mC]*eG*eA*eG*eG*eT*eT*eG*eT)
Neuro2a
  mGRN mRNA FC: 1.2 FC

## CO-5307: CO-3595 modified to include varying PO/PS internucleotide bonds (antisense e[5mC]*e[5mC]*eT*eG*eA*eA*e[5mC]*eT*eG*eT*eAeTeGeGe[5mC]eTeG*eA*e[5mC]*e[5mC])
Table 16, Neuro2A
  40 nM FC (mGrn mRNA): 1.0 FC
  80 nM FC (mGrn mRNA): 1.1 FC
  160 nM FC (mGrn mRNA): 1.1 FC

## CO-5292: CO-3544 modified to include PO/PS bonds (antisense eG*eT*eT*e[5mC]*eT*e[5mC]*e[5mC]e[5mC]eTeAeGe[5mC]eTeGeTeGeT*eA*eG*eT)
Table 15, Neuro2a
  40 nM FC (mGrn mRNA): 1.1 FC
  80 nM FC (mGrn mRNA): 1.1 FC
  160 nM FC (mGrn mRNA): 1.1 FC

## CO-3590: ASO targeting the Grn promoter (− strand) (antisense eT*eA*eA*eT*eG*e[5mC]*e[5mC]*e[5mC]*eT*eT*eA*eT*e[5mC]*eT*eT*eG*eA*eA*e[5mC]*eG)
Neuro2a
  mGRN mRNA FC: 1.2 FC

## CO-3562: ASO targeting the Grn promoter (− strand) (antisense eG*e[5mC]*e[5mC]*eT*eG*eT*eG*e[5mC]*eA*eA*eT*eT*eG*eA*eGeG*eG*eT*e[5mC]*e[5mC])
Neuro2a
  mGRN mRNA FC: 1.1 FC

## CO-5291: CO-3544 modified to include PO/PS bonds (antisense eG*eT*eT*e[5mC]*eTe[5mC]e[5mC]e[5mC]eTeAeGe[5mC]eTeGeTeGeT*eA*eG*eT)
Table 15, Neuro2a
  40 nM FC (mGrn mRNA): 0.9 FC
  80 nM FC (mGrn mRNA): 1.0 FC
  160 nM FC (mGrn mRNA): 0.9 FC

## CO-3552: ASO targeting the Grn promoter (− strand) (antisense e[5mC]*e[5mC]*eT*eT*eG*eG*e[5mC]*e[5mC]*e[5mC]*e[5mC]*e[5mC]*eA*eG*eA*eG*e[5mC]*eT*e[5mC]*eA*eA)
Neuro2a
  mGRN mRNA FC: 1.1 FC

## CO-3569: ASO targeting the Grn promoter (− strand) (antisense eG*eG*eA*eA*eT*eG*eT*eG*eA*eA*e[5mC]*eT*eG*eA*eG*eT*eA*eG*eA*eA)
Neuro2a
  mGRN mRNA FC: 1.2 FC

## CO-3594: ASO targeting the Grn promoter (− strand) (antisense e[5mC]*eA*eT*eG*eG*eT*e[5mC]*eT*e[5mC]*eT*eA*eT*eT*e[5mC]*eA*e[5mC]*e[5mC]*e[5mC]*eA*e[5mC])
Neuro2a
  mGRN mRNA FC: 1.6 FC

## CO-3600: ASO targeting the Grn promoter (− strand) (antisense eG*eG*eA*eA*e[5mC]*eA*e[5mC]*e[5mC]*eT*eA*eT*eG*e[5mC]*eT*eA*eA*e[5mC]*eA*e[5mC]*e[5mC])
Neuro2a
  mGRN mRNA FC: 1.5 FC

## CO-5314: CO-3595 modified to include varying PO/PS internucleotide bonds (antisense l[5mC]*l[5mC]*eT*lG*lA*eA*l[5mC]*eT*lG*eT*lA*eT*lG*eG*l[5mC]*eT*lG*eA*l[5mC]*l[5mC])
Table 16, Neuro2A
  40 nM FC (mGrn mRNA): 1.5 FC
  80 nM FC (mGrn mRNA): 1.7 FC
  160 nM FC (mGrn mRNA): 1.5 FC

## CO-3545: ASO targeting the Grn promoter (− strand) (antisense e[5mC]*eT*eA*eG*eT*eG*eG*eA*eA*eG*eA*eT*eG*eT*e[5mC]*eG*eG*eA*eG*e[5mC])
Neuro2a
  mGRN mRNA FC: 1.7 FC

## CO-3555: ASO targeting the Grn promoter (− strand) (antisense e[5mC]*eT*e[5mC]*eT*eT*eG*eT*e[5mC]*e[5mC]*eG*eT*eA*e[5mC]*eT*eT*e[5mC]*e[5mC]*e[5mC]*eA*e[5mC])
Neuro2a
  mGRN mRNA FC: 1.5 FC
